Experimental findings from publication PMC8971402, “Author Correction: Effects of route of administration on oxytocin-induced changes in regional cerebral blood flow in humans” (Nature Communications, 2022) are described below.

A word on the Cmax: it is the maximum level reached in the sampled fluid or tissue.

Several values for one entry are separate records, joined by “and”; a condition that tells them apart may be missing. Equal entries are not always repeated.

Series [1] relates to heart rate and heart rate variability. On the set-up: species or system humans. Particulars: in vivo, iv. As for the experimental part: Supplementary Table 4 – Percentage of observations satisfying quality control criteria for
the pulse plethysmography analysis. Following current recommendations for heart rate data
processing and analysis, if more than 5% of the beats required correction, then we decided to
exclude these periods of observation. In some rare cases where artefacts could not be corrected,
we only included the data if at least 5 min of acquisition free of artefacts could be analysed. In
this table, we present the percentage of total data available satisfying our quality control criteria
for each treatment method of administration and time-interval, so the reader can appreciate the
amount of data effectively used in the final analysis.
Time from last drug administration offset (minutes)
We determined time-interval, treatment, and treatment
x time-interval effects on a set of time domain (heart-rate (HR) and the root mean square of the successive differences (RMSSD), frequency domain
(low (LF) and high (HF) frequencies spectral powers and high/low frequency spectral power ratio (HF/LF)) and non-linear (Approximate entropy
(ApEn), the SD1 and SD2 lines from the Poincare Plot and the detrended fluctuation scaling exponents DFAα1 and DFAα2) analysis measures of
heart rate variability. We used a repeated measures two-way analysis of variance, using subjects, treatment and time as factors, and the Greenhouse- […]

For series [2] the following is noted: in vivo.
Text: We present a summary of three
(§1) parameters describing the pharmacokinetics of each treatment administration method. We
(§2) present the maximum plasmatic concentration achieved after dosing (Cmax), the area under the
(§3) curve (AUC) reflecting the magnitude of the variations of plasmatic oxytocin post-dosing and
(§4) the absolute bioavailability of oxytocin absorbed to the plasma, calculated as the dose-corrected
(§5) AUC of each intranasal administration divided by the dose-corrected AUC of the intravenous
(§6) administration. Data are presented as mean (1 standard error of the mean).
The nature of series [3]: Pharmacokinetics of plasmatic oxytocin after intravenous, nasal spray or nebulizer administration. To be noted: for Concentration (plasma oxytocin): Condition IV, individual participants (Fig6A source data); for Bioavailability: individual participants, corrected source data (Fig6C).
Text: We present a summary of three
as §1, §2, §3, §4, §5, §6

Consider `CC[C@H](C)[C@@H]1NC(=O)[C@H](Cc2ccc(O)cc2)NC(=O)[C@@H](N)CSSC[C@@H](C(=O)N2CCC[C@H]2C(=O)N[C@@H](CC(C)C)C(=O)NCC(N)=O)NC(=O)[C@H](CC(N)=O)NC(=O)[C@H](CCC(N)=O)NC1=O` [oxytocin], for which the “Effect on heart rate and heart rate variability” value in series [1] was “did not affect heart rate or heart rate variability”. Further, the “AUC over the observation interval, intravenous OT infusion vs intranasal methods” value in series [2] is “significantly higher AUC”. In addition, the “Concentration (plasma oxytocin)” value is 65.12 and 59.67 and 47.11 in series [3] (Sample 2, in pg/mL); 0.0681 ng/mL in series [3] (Sample 3); 0.0539 ng/mL in series [3] (Sample 4); 30.93 in series [3] (Sample 4, in pg/mL); 12.86 and 20.71 in series [3] (Sample 6, in pg/mL); 0.00723 ng/mL and 0.00461 ng/mL in series [3] (Sample 7). Moreover, the Concentration (plasma oxytocin) in series [3] (Sample 8) was determined as 0.00377 ng/mL. For the same compound, the Bioavailability in series [3] (Nebuliser) was 31.90% and 10.30% and 3.30% and 7.94% and 12.67% and 62.94% and 5.39% and 6.53% and 8.236% and 4.17% and 6.07% and 5.20% and 6.82% and 10.22% and 6.95% and 32.80%; in series [3] (Spray), 6.85% and 11.96% and 5.38% and 16.81% and 5.32% and 6.16% and 8.93% and 4.67% and 8.4323% and 12.50% and 14.77% and 6.29% and 7.56% and 11.34% and 5.36% and 37.05%. Besides, the “Absolute bioavailability of OT absorbed to the plasma, standard nasal spray vs PARI SINUS nebulizer” value in series [3] (corrected AUCs, paired t-test p = 0.438) is listed as “no significant differences”. The compound further displayed a Cmax in series [3] (human, in vivo, iv, SEM) of 0.0643 ng/mL.
